Assay results from article PMC9084888, “FGFR2–BRD4 Axis Regulates Transcriptional Networks of Histone 3 Modification and Synergy Between Its Inhibitors and PD-1/PD-L1 in a TNBC Mouse Model” (Frontiers in Immunology, 2022).

Legend:
Format in all cases: cell-based, mouse
[1] = tested on: BRD4; test: Western blot of BRD4 in treated Fgfr2-S252W tumor cells; conditions: Figure 5F
Procedure: (§1) Total proteins of tumors or cells were extracted using RIPA buffer with phosphatase and a protease inhibitor. Following a previously described protocol, immunoblotting was carried out using ChemiDocTM with corresponding antibodies. The antibodies used for IHC and Western blot are listed in Supplementary Table S2 .
(§2) (C) Immunoblots with antibodies specific for the H3K9 acetylated lysine residues of histone H3 and pathway analysis of the activation of FGFR2 tumors or wild type (WT). […] (E) Assessment of the drug response of BGJ398, JQ1, or the combined treatment of Fgfr2-S252W tumor cells with the Alamar blue assay. […] (G) Inflammation analysis using real-time RT-PCR from Fgfr2-S252W or WT mouse. P-values by using GraphPad Prism 7 Software. **p < 0.01, ***p < 0.001, ****p < 0.0001.

[2] = tested on: c-Myc; test: Western blot of c-Myc in treated Fgfr2-S252W tumor cells; conditions: Figure 5F
Procedure: as §1, §2

[3] = tested on: Fgfr2-S252W tumor cells; test: Alamar blue drug response assay of Fgfr2-S252W tumor cells
Description: All animal experiments were approved by the University of Macau Animal Ethics Committee (under the protocol UMARE-015-2019). The generation of Fgfr2-S252W mice was described in a previous work ([19]). Transgenic mice were continually checked to accelerate the growth of mammary tumors. Tumor samples were cut using sharp blades into small pieces of about 0.1–0.3 cm in diameter and processed three ways, as follows: 1) two larger pieces were fixed in 10% formalin and processed for histology and immunohistochemistry (IHC) staining with antibodies; 2) three pieces were immediately frozen in liquid nitrogen and used for subsequent DNA, RNA, and protein isolation; and 3) all the remaining pieces were placed in a freezing medium [10% DMSO/25% serum/65% Dulbecco’s modified Eagle’s medium (DMEM)], slowly frozen to −80°C, and transferred into liquid nitrogen a few days later. […] Primary FGFR2 tumor cells were derived from the Fgfr2-S252W mouse model using a standard procedure and maintained in F-medium.
Figure 5 (A, B) RT-PCR analysis of the mRNA levels of Brd4 (A) and c-Myc (B) in tumors from the activation of Fgfr2-S252W transgenic mice. (C) Immunoblots with antibodies specific for the H3K9 acetylated lysine residues of histone H3 and pathway analysis of the activation of FGFR2 tumors or wild type (WT). […]

| Compound | inhibition of BRD4 (Western blot) [1] | inhibition of c-Myc (Western blot) [2] | resistance of Fgfr2-S252W tumor cells [3] | drug response of Fgfr2-S252W cells ([3]; cell culture conditions, single agent, compared to response to FGFR inhibitor BGJ398) |
| --- | --- | --- | --- | --- |
| CCN1CCN(c2ccc(Nc3cc(N(C)C(=O)Nc4c(Cl)c(OC)cc(OC)c4Cl)ncn3)cc2)CC1 [BGJ398] | inhibit | inhibit |  |  |
| Cc1sc2c(c1C)C(c1ccc(Cl)cc1)=N[C@@H](CC(=O)OC(C)(C)C)c1nnc(C)n1-2 [JQ1] | inhibit | inhibit | still showed resistance | not very sensitive |
